Test results published in paper PMC5324278, “Novel synthetic analogues of avian β-defensin-12: the role of charge, hydrophobicity, and disulfide bridges in biological functions” (BMC Microbiology, 2017).
Bridge positions count the residues as written; N and C are the ends. Ends that are not written are not given here.

Key:
[1] = system: P. aeruginosa (ATCC 27853); format: cell-based, Pseudomonas aeruginosa; details: triplicate; for MIC-ls P. aeruginosa (ATCC 27853): 100× diluted Muller Hinton II broth, 5 mM NaCl; for MIC-ls P. aeruginosa (ATCC 27853) / MIC P. aeruginosa (ATCC 27853): 5 × 10^5 CFU/ml, 37 °C, 24 h; for MIC P. aeruginosa (ATCC 27853): CLSI, standard Muller Hinton II broth; for MBC-ls P. aeruginosa (ATCC 27853): sub-culture of clear MIC-ls wells on LB agar, lowest concentration inhibiting more than 99% of growth
Description: (§1) The minimum inhibitory concentrations (MIC) of AvBDs were determined according to the guidelines of the Clinical and Laboratory Standards Institute (CLSI). The Muller Hinton II broth used in standard MIC assays contained 20–25 mg/L of calcium and 10–12.5 mg/L of magnesium. Modified MICs of AvBDs were also determined under a low-salt and low-nutrient condition by using 100× diluted Muller Hinton II broth containing 0.2 mg/L of calcium, 0.1 mg/L magnesium and 5 mM (292 mg/L) NaCl. MIC obtained under the low-salt and low-nutrient condition was referred to as MIC-ls. AvBD peptides were two-fold serially diluted (2 to 256 μg/ml) in a 96-well microtiter plate. An equal volume (μl) of bacterial suspension was added to each well of the plate. The final bacterial concentration in the wells was 5 × 10^5 CFU/ml. […] To complement MIC-ls assays, the minimum bactericidal concentrations (MBC) were evaluated by sub-culturing the contents of the first two clear wells obtained in the MIC-ls assay onto LB agar plates. All assays were conducted in triplicate. The lowest peptide concentration inhibiting more than 99% of bacterial growth was defined as MBC-ls. AvBD analogues were regarded as bactericidal if the MBC was no more than four times the MIC [29].

CHO-K1 cells = experiment: MTT cell cytotoxicity assay; format: cell-based; details: 256 μg/ml; 4, 12, 24 and 48 hours; Student t-test treated vs untreated; n = 3; Figure S1
Description: (§2) Chicken macrophage cell lines MQ-NCSU and HD11 were maintained in RPMI-1640 media supplemented with 10% fetal bovine serum (FBS), 2% chicken serum, 100 U/ml penicillin and 100 μg/ml streptomycin (Sigma-Aldrich) at 37 °C in humidified air with 5% CO2. CHO-K1 cells were cultured in the same media without 2% chicken serum. For CCR2-transfected CHO-K1 cells, the medium was supplemented with 500 μg/ml G418 was added (Sigma-Aldrich). Murine immature dendritic cell line JAWSII (ATCC CRL-11904™) was cultured in Alpha minimum essential medium containing 4 mM L-glutamine, 1 mM sodium pyruvate, 5 ng/ml murine Granulocyte macrophage colony-stimulating factor (GM-CSF), 20% FBS, 100 U/ml penicillin and 100 μg/ml streptomycin at 37 °C in humidified air with 5% CO2. The cell cytotoxicity was determined using the MTT (3-(4, 5-dimethylthiazol-2-yl)-2, 5-diphenyltetrazolium bromide metabolic activity assay according to the manufacturer’s instruction (Thermo Fisher Scientific). Briefly, cells (5 × 10^3 cells/well) were seeded in 96-well tissue culture plates, incubated overnight and treated with AvBDs at concentrations of 4, 16, 64 and 256 μg/ml for 4, 12, 24 and 48 h at 37 °C. After treatment, 20 μl of 12 mM MTT solution was added to each well. The plate was incubated for 4 h and read at 540 nm. Viability was expressed as percentage of viable cells relative to the untreated control. The experiments were performed in triplicate.

S. aureus (ATCC 29213) = format: cell-based, Staphylococcus aureus; details: triplicate; for MIC-ls S. aureus (ATCC 29213): 100× diluted Muller Hinton II broth, 5 mM NaCl; for MIC-ls S. aureus (ATCC 29213) / MIC S. aureus (ATCC 29213): 5 × 10^5 CFU/ml, 37 °C, 24 h; for MIC S. aureus (ATCC 29213): CLSI, standard Muller Hinton II broth; for MBC-ls S. aureus (ATCC 29213): sub-culture of clear MIC-ls wells on LB agar, lowest concentration inhibiting more than 99% of growth
Description: as §1

[2] = system: S. Typhimurium (ATCC 14028); format: cell-based, Salmonella enteric serovar Typhimurium; details: triplicate; for MIC-ls S. Typhimurium (ATCC 14028): 100× diluted Muller Hinton II broth, 5 mM NaCl; for MIC-ls S. Typhimurium (ATCC 14028) / MIC S. Typhimurium (ATCC 14028): 5 × 10^5 CFU/ml, 37 °C, 24 h; for MIC S. Typhimurium (ATCC 14028): CLSI, standard Muller Hinton II broth; for MBC-ls S. Typhimurium (ATCC 14028): sub-culture of clear MIC-ls wells on LB agar, lowest concentration inhibiting more than 99% of growth
Description: as §1

E. coli (ATCC 25922) = format: cell-based, Escherichia coli; details: triplicate; for MIC-ls E. coli (ATCC 25922): 100× diluted Muller Hinton II broth, 5 mM NaCl; for MIC-ls E. coli (ATCC 25922) / MIC E. coli (ATCC 25922): 5 × 10^5 CFU/ml, 37 °C, 24 h; for MIC E. coli (ATCC 25922): CLSI, standard Muller Hinton II broth; for MBC-ls E. coli (ATCC 25922): sub-culture of clear MIC-ls wells on LB agar, lowest concentration inhibiting more than 99% of growth
Description: as §1

JAWSII cells = experiment: MTT cell cytotoxicity assay; format: cell-based, murine; details: 256 μg/ml; 4, 12, 24 and 48 hours; Student t-test treated vs untreated; n = 3; Figure S1
Description: as §2, with “The experiments were performed in triplicate.” left out

MQ-NCSU cells = experiment: MTT cell cytotoxicity assay; format: cell-based, chicken; details: 256 μg/ml; 4, 12, 24 and 48 hours; Student t-test treated vs untreated; n = 3; Figure S1
Description: as §2

HD11 cells = experiment: MTT cell cytotoxicity assay; format: cell-based, chicken; details: 256 μg/ml; 4, 12, 24 and 48 hours; Student t-test treated vs untreated; n = 3; Figure S1
Description: as §2

[3] = system: avian and mammalian cell lines; details: previous findings; cited from earlier work
Description: Data on the highest peptide concentration (256 μg/ml) at various exposure times were presented in Additional file 1: Figure S1. The results were consistent with our previous findings that AvBD-6 and AvBD-12 were non-cytotoxic to avian and mammalian cell lines.

[4] = system: Salmonella enteric serovar Typhimurium (ATCC 14028); format: cell-based; details: peptide 16 μg/ml; 2 h at 37 °C; 100-fold diluted Mueller Hinton II broth with 5 mM NaCl; colony count; n = 3
Description: (§3) Escherichia coli (ATCC 25922), Pseudomonas aeruginosa (ATCC 27853), Salmonella enteric serovar Typhimurium (ATCC 14028) and Staphylococcus aureus (ATCC 29213) were used to assess the antimicrobial activity of AvBD analogues. All bacterial strains were grown on Luria-Bertani (LB) agar plates or Trypticase Soy Agar with 5% Sheep Blood (TSA, Thermo Fisher Scientific) plates at 37 °C. Antimicrobial activity was determined by a colony counting assay. In brief, bacteria were resuspended in 100-fold diluted Mueller Hinton II broth with 5 mM NaCl (minimal growth medium) to obtain a final bacterial concentration of 2 × 10^5 CFU/ml. Twenty-five microliters of bacterial suspension and 25 μl of AvBD analogue solution were mixed in the wells of a 96-well polypropylene microtiter plate (Nunc™, Thermo Fisher Scientific). The final peptide concentrations were 2, 4, 8, 16, 32, 64 and 128 μg/ml. The minimal growth medium without AvBD peptide was included as a negative control. The bacterial-peptide mixtures were incubated at 37 °C for 2 h, ten-fold serially diluted and plated on LB agar plates. The numbers of bacteria colonies were enumerated after 16 h of incubation at 37 °C. Antimicrobial activity was expressed as percent of killing using the following formula: (CFUcontrol - CFUtreated) / CFUcontrol × 100%. To assess the resistance of AvBD analogues to sodium chloride (NaCl), antimicrobial assays were carried out in the presence of 5 mM, 50 mM, 100 mM or 150 mM NaCl. All assays were performed in triplicate.

[5] = system: Escherichia coli (ATCC 25922); format: cell-based; details: peptide 16 μg/ml; 2 h at 37 °C; 100-fold diluted Mueller Hinton II broth with 5 mM NaCl; colony count; n = 3
Description: as §3

[6] = system: Pseudomonas aeruginosa (ATCC 27853); format: cell-based; details: peptide 16 μg/ml; 2 h at 37 °C; 100-fold diluted Mueller Hinton II broth with 5 mM NaCl; colony count; n = 3
Description: as §3

[7] = system: Staphylococcus aureus (ATCC 29213); format: cell-based; details: peptide 16 μg/ml; 2 h at 37 °C; 100-fold diluted Mueller Hinton II broth with 5 mM NaCl; colony count; n = 3
Description: as §3

Sequence	MIC-ls P. aeruginosa (ATCC 27853) [1]	MIC P. aeruginosa (ATCC 27853) [1]	MBC-ls P. aeruginosa (ATCC 27853) [1]	metabolic activity (viability relative to untreated control), CHO-K1 (CHO-K1 cells)	MIC-ls S. aureus (ATCC 29213) (S. aureus (ATCC 29213))	MIC S. aureus (ATCC 29213) (S. aureus (ATCC 29213))	MBC-ls S. aureus (ATCC 29213) (S. aureus (ATCC 29213))	MIC-ls S. Typhimurium (ATCC 14028) [2]	MIC S. Typhimurium (ATCC 14028) [2]	MBC-ls S. Typhimurium (ATCC 14028) [2]	MIC-ls E. coli (ATCC 25922) (E. coli (ATCC 25922))	MIC E. coli (ATCC 25922) (E. coli (ATCC 25922))	MBC-ls E. coli (ATCC 25922) (E. coli (ATCC 25922))	metabolic activity (viability relative to untreated control), JAWSII (JAWSII cells)	metabolic activity (viability relative to untreated control), MQ-NCSU (MQ-NCSU cells)	metabolic activity (viability relative to untreated control), HD11 (HD11 cells)	cytotoxicity to avian and mammalian cell lines [3]	other results
GPDSCNHDRGLCRVGNCNPGEYLAKYCFEPVILCCKPLSPTPTKT (disulfide 5-34, 12-27, 17-35) [AvBD-12, avian β-defensin-12]	128 µg/mL	>256 µg/mL	>256 µg/mL	No significant difference was found	256 µg/mL	>256 µg/mL	256 µg/mL	128 µg/mL	>256 µg/mL	256 µg/mL	32 µg/mL	256 µg/mL	128 µg/mL	No significant difference was found	No significant difference was found	No significant difference was found	non-cytotoxic	percent of killing of S. Typhimurium [4]: 47.3%; percent of killing of E. coli [5]: 74.4%; percent of killing of P. aeruginosa [6]: 35.5%; percent of killing of S. aureus [7]: 52.9%
SPIHACRYQRGVCIPGPCRWPYYRVGSCGSGLKSCCVRNRWA (disulfide 6-35, 13-28, 18-36) [AvBD-6, avian β-defensin-6, reference compound]	64 µg/mL	>256 µg/mL	128 µg/mL	No significant difference was found	256 µg/mL	256 µg/mL	256 µg/mL	16 µg/mL	>256 µg/mL	64 µg/mL	4 µg/mL	128 µg/mL	16 µg/mL	No significant difference was found	No significant difference was found	No significant difference was found	non-cytotoxic	
